{
  "source": "paper PMC7310027",
  "about": "“PET imaging of soluble epoxide hydrolase in non-human primate brain with [^18F]FNDP” (EJNMMI Research, 2020)",
  "key": {"[1]": {"assay": "Baboon plasma radiometabolite analysis by HPLC", "type": "in vivo, baboon (Papio anubis)", "method": "Measurement of the arterial plasma input function was conducted through collection of ~ 40 blood samples over the course of the 90-min dynamic PET study. […] Samples were then centrifuged at 1200 × g, and the plasma radioactivity was measured with a cross-calibrated PerkinElmer Wizard 2480 automatic gamma counter.\nSelect plasma samples (0, 5, 10, 20, 30, 60, and 90 min) were analyzed for radiometabolites using high-performance liquid chromatography (HPLC). The modified column-switching HPLC method was used. The HPLC system consisting of a 1260 infinity quaternary pump, a 1260 infinity column compartment module, a 1260 infinity UV detector, and a Raytest GABI Star radiation detector, was operated with OpenLab CDS EZChrom (A.01.04) software. […] After 1 min of isocratic elution, analytical mobile phase composed of 65% acetonitrile and 35% water with 0.06 M trimethylamine (at pH = 7.2, adjusted with phosphoric acid) was applied to direct non-polar compounds trapped on the capture column to an analytical column (Gemini C18(2), 10 μm, 4.6 × 250 mm) and detectors at 2 mL/min. The HPLC system was standardized for mass using non-radioactive FNDP prior to analysis of the blood plasma samples, which were spiked with 5 μL of non-radioactive FNDP at a concentration of 1 mg/mL."}, "[2]": {"set-up": "method as in PMID 27417650", "conditions": "baboon brain; cited from earlier work"}, "[3]": {"set-up": "method as in PMID 27417650", "conditions": "mouse brain; cited from earlier work"}, "[4]": {"assay": "Murine radiometabolite analysis (blood and brain) by RP-HPLC", "type": "in vivo, CD-1 mice", "method": "Male CD-1 mice (25–26 g) were injected via the lateral tail vein with 37 MBq of high specific activity (1.1 TBq/μmol or 29.7 Ci/μmol) [^18F]FNDP. The mice were sacrificed by cervical dislocation at 10 and 30 min after injection, and a terminal blood sample was obtained. The mouse brains were rapidly removed, homogenized in 2 mL of ACN:H2O 50%–50% (vol) with 0.06 M ammonium formate to extract parent tracer and radiometabolites, centrifuged at 20,000 g at 4 °C. Resulting supernatants were analyzed by reverse-phase (RP)-HPLC."}},
  "data": [
    {"smiles": "O=C(NCCC(c1ccccc1)c1ccccc1)c1ccc([18F])nc1", "note": "[[^18F]FNDP, N-(3,3-diphenylpropyl)-6-^18F-fluoronicotinamide]", "values": [
      {"measurement": "fraction of radioactivity by HPLC (Met-1, Met-2, parent)", "setting": "[1]; Baboon blood (10 min)", "result": "77.0 ± 3.6", "unit": "%"},
      {"measurement": "fraction of radioactivity by HPLC (Met-1, Met-2, parent)", "setting": "[1]; Baboon blood (30 min)", "result": "46.5 ± 6.4", "unit": "%"},
      {"measurement": "fraction of radioactivity by HPLC (Met-1, Met-2, parent)", "setting": "[1]; Baboon blood (60 min)", "result": "28.3 ± 9.3", "unit": "%"},
      {"measurement": "fraction of radioactivity by HPLC (Met-1, Met-2, parent)", "setting": "[1]; Baboon blood (90 min)", "result": "21.8 ± 7.0", "unit": "%"},
      {"measurement": "suggested fraction of brain radioactivity that is parent", "setting": "[1]; baboon brain, extrapolated", "result": "> 95", "unit": "%"},
      {"measurement": "brain uptake, standardized uptake value (SUV)", "setting": "[2]", "result": 4},
      {"measurement": "brain uptake, injected dose per gram of tissue", "setting": "[3]", "result": 5, "unit": "% ID/g"},
      {"measurement": "fraction of radioactivity by HPLC (Met-1, Met-2, parent)", "setting": "[4]; Mouse blood (10 min)", "result": "63.4 ± 4.4", "unit": "%"},
      {"measurement": "fraction of radioactivity by HPLC (Met-1, Met-2, parent)", "setting": "[4]; Mouse blood (30 min)", "result": "50.1 ± 10.5", "unit": "%"},
      {"measurement": "fraction of radioactivity by HPLC (Met-1, Met-2, parent)", "setting": "[4]; Mouse brain (10 min)", "result": "99.2 ± 0.3", "unit": "%"},
      {"measurement": "fraction of radioactivity by HPLC (Met-1, Met-2, parent)", "setting": "[4]; Mouse brain (30 min)", "result": "98.3 ± 0.3", "unit": "%"}
    ]}
  ]
}
